Measurements reported in patent US10428063B2 (Bayer Pharma Aktiengesellschaft, priority 2015, dated 2019).

What follows are compounds tested against catalytic domain of human Bub1 (amino acids 704-1085) (Homo sapiens (Human), UniProt O43683) (assay: Bub1 kinase assay (TR-FRET)). Details: 10 μM ATP, 1 μM peptide substrate, recombinant catalytic domain of human Bub1, read-out: Bub1 kinase assay median IC50.
Type: biochemical
Text: Bub1-inhibitory activities of compounds described in the present invention were quantified using a time-resolved fluorescence energy transfer (TR-FRET) kinase assay which measures phosphorylation of the synthetic peptide Biotin-Ahx-VLLPKKSFAEPG (C-terminus in amide form), purchased from e.g. Biosyntan (Berlin, Germany) by the (recombinant) catalytic domain of human Bub1 (amino acids 704-1085), expressed in Hi5 insect cells with an N-terminal His6-tag and purified by affinity- (Ni-NTA) and size exclusion chromatography.
In a typical assay 11 different concentrations of each compound (0.1 nM, 0.33 nM, 1.1 nM, 3.8 nM, 13 nM, 44 nM, 0.15 μM, 0.51 μM, 1.7 μM, 5.9 μM and 20 μM) were tested in duplicate within the same microtiter plate. To this end, 100-fold concentrated compound solutions (in DMSO) were previously prepared by serial dilution (1:3.4) of 2 mM stocks in a clear low volume 384-well source microtiter plate (Greiner Bio-One, Frickenhausen, Germany), from which 50 nl of compounds were transferred into a black low volume test microtiter plate from the same supplier. Subsequently, 2 μl of Bub1 (the final concentration of Bub1 was adjusted depending on the activity of the enzyme lot in order to be within the linear dynamic range of the assay: typically ˜200 ng/ml were used) in aqueous assay buffer [50 mM Tris/HCl pH 7.5, 10 mM magnesium chloride (MgCl2), 200 mM potassium chloride (KCl), 1.0 mM dithiothreitol (DTT), 0.1 mM sodium ortho-vanadate, 1% (v/v) glycerol, 0.01% (w/v) bovine serum albumine (BSA), 0.005% (v/v) Trition X-100 (Sigma), 1× Complete EDTA-free protease inhibitor mixture (Roche)] were added to the compounds in the test plate and the mixture was incubated for 15 min at 22° C. to allow pre-equilibration of the putative enzyme-inhibitor complexes before the start of the kinase reaction, which was initiated by the addition of 3 μl 1.67-fold concentrated solution (in assay buffer) of adenosine-tri-phosphate (ATP, 10 μM final concentration) and peptide substrate (1 μM final concentration). The resulting mixture (5 μl final volume) was incubated at 22° C. during 60 min., and the reaction was stopped by the addition of 5 μl of an aqueous EDTA-solution (50 mM EDTA, in 100 mM HEPES pH 7.5 and 0.2% (w/v) bovine serum albumin) which also contained the TR-FRET detection reagents (0.2 μM streptavidin-XL665 [Cisbio Bioassays, Codolet, France] and 1 nM anti-phosho-Serine antibody [Merck Millipore, cat. #35-002] and 0.4 nM LANCE EU-W1024 labeled anti-mouse IgG antibody [Perkin-Elmer, product no. AD0077, alternatively a Terbium-cryptate-labeled anti-mouse IgG antibody from Cisbio Bioassays can be used]). The stopped reaction mixture was further incubated 1 h at 22° C. in order to allow the formation of complexes between peptides and detection reagents. Subsequently, the amount of product was evaluated by measurement of the resonance energy transfer from the Eu-chelate-antibody complex recognizing the Phosphoserine residue to the streptavidin-XL665 bound to the biotin moiety of the peptide. To this end, the fluorescence emissions at 620 nm and 665 nm after excitation at 330-350 nm were measured in a TR-FRET plate reader, e.g. a Rubystar or Pherastar (both from BMG Labtechnologies, Offenburg, Germany) or a Viewlux (Perkin-Elmer) and the ratio of the emissions (665 nm/622 nm) was taken as indicator for the amount of phosphorylated substrate. The data were normalised using two sets of control wells for high- (=enzyme reaction without inhibitor=0%=Minimum inhibition) and low- (=all assay components without enzyme=100%=Maximum inhibition) Bub1 activity. IC50 values were calculated by fitting the normalized inhibition data to a 4-parameter logistic equation (Minimum, Maximum, IC50, Hill; Y=Max+(Min−Max)/(1+(X/IC50)Hill)).

Chain of catalytic domain of human Bub1 (amino acids 704-1085) (O43683 704-1085): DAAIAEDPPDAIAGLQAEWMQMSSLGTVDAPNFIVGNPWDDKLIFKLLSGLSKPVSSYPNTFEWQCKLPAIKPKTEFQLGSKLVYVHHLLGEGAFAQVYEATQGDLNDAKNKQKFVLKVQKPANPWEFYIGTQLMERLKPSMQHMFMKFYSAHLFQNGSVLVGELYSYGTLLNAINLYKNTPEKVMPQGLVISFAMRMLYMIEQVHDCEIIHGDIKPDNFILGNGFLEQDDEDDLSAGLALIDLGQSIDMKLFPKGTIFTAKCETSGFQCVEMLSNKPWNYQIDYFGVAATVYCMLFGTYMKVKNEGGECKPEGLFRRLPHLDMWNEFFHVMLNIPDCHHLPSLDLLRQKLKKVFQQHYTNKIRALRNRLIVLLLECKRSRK

Row | IC50 | SMILES
1 | 51.6 nM | CCCOc1cnccc1-c1[nH]c2c(c1Nc1ccccc1)C(=O)N(C)CC2 [Example 28, 5-methyl-3-(phenylamino)-2-(3-propoxypyridin-4-yl)-1,5,6,7-tetrahydro-4H-pyrrolo[3,2-c]pyridin-4-one]
2 | 35.1 nM | CCn1c2c(c(Nc3ccccc3)c1-c1ccncc1)C(=O)NCC2 [Example 5, 1-ethyl-3-(phenylamino)-2-(pyridin-4-yl)-1,5,6,7-tetrahydro-4H-pyrrolo[3,2-c]pyridin-4-one]
3 | 32.8 nM | COCCOc1cnccc1-c1[nH]c2c(c1Nc1ccc(F)cc1)C(=O)NCC2 [Example 46, 3-[(4-fluorophenyl)amino]-2-[3-(2-methoxyethoxy)pyridin-4-yl]-1,5,6,7-tetrahydro-4H-pyrrolo[3,2-c]pyridin-4-one]
4 | 19.5 nM | CCNC(=O)Nc1cc(-c2[nH]c3c(c2Nc2ccccc2)C(=O)NCC3)ccn1 [Example 19, 1-ethyl-3-{4-[4-oxo-3-(phenylamino)-4,5,6,7-tetrahydro-1H-pyrrolo[3,2-c]pyridin-2-yl]pyridin-2-yl}urea]
5 | 170 nM | CN1CCc2[nH]c(-c3ccnc(N)c3)c(Nc3ccccc3)c2C1=O [Example 21, 2-(2-aminopyridin-4-yl)-5-methyl-3-(phenylamino)-1,5,6,7-tetrahydro-4H-pyrrolo[3,2-c]pyridin-4-one]
6 | 41.6 nM | CN1CCc2[nH]c(-c3ccncc3OCc3ccccc3)c(Nc3ccccc3)c2C1=O [Example 32, 2-[3-(benzyloxy)pyridin-4-yl]-5-methyl-3-(phenylamino)-1,5,6,7-tetrahydro-4H-pyrrolo[3,2-c]pyridin-4-one]
7 | 84.3 nM | CN1CCc2[nH]c(-c3ccncc3OCC(F)(F)F)c(Nc3ccccc3)c2C1=O [Example 30, 5-methyl-3-(phenylamino)-2-[3-(2,2,2-trifluoroethoxy)pyridin-4-yl]-1,5,6,7-tetrahydro-4H-pyrrolo[3,2-c]pyridin-4-one]
8 | 51.8 nM | CN1CCc2[nH]c(-c3ccncc3OCCC(F)(F)F)c(Nc3ccccc3)c2C1=O [Example 33, 5-methyl-3-(phenylamino)-2-[3-(3,3,3-trifluoropropoxy)pyridin-4-yl]-1,5,6,7-tetrahydro-4H-pyrrolo[3,2-c]pyridin-4-one]
9 | 34.8 nM | CN1CCc2[nH]c(-c3ccnc4[nH]cnc34)c(Nc3ccccc3)c2C1=O [Example 36, 2-(3H-imidazo[4,5-b]pyridin-7-yl)-5-methyl-3-(phenylamino)-1,5,6,7-tetrahydro-4H-pyrrolo[3,2-c]pyridin-4-one]
10 | 244 nM | Cc1cnccc1-c1[nH]c2c(c1Nc1ccccc1)C(=O)NCC2 [Example 3, 2-(3-methylpyridin-4-yl)-3-(phenylamino)-1,5,6,7-tetrahydro-4H-pyrrolo[3,2-c]pyridin-4-one]
11 | 138 nM | Nc1cc(-c2[nH]c3c(c2Nc2ccccc2)C(=O)NCC3)ccn1 [Example 8, 2-(2-aminopyridin-4-yl)-3-(phenylamino)-1,5,6,7-tetrahydro-4H-pyrrolo[3,2-c]pyridin-4-one]
12 | 36.8 nM | O=C1NCCc2[nH]c(-c3ccncc3OCC(F)F)c(Nc3cccc(F)c3)c21 [Example 41, 2-[3-(2,2-difluoroethoxy)pyridin-4-yl]-3-[(3-fluorophenyl)amino]-1,5,6,7-tetrahydro-4H-pyrrolo[3,2-c]pyridin-4-one]
13 | 319 nM | CC(C)C(=O)Nc1cc(-c2[nH]c3c(c2Nc2ccccc2)C(=O)N(C(=O)C(C)C)CC3)ccn1 [Example 10, 2-methyl-N-{4-[5-(2-methylpropanoyl)-4-oxo-3-(phenylamino)-4,5,6,7-tetrahydro-1H-pyrrolo[3,2-c]pyridin-2-yl]pyridin-2-yl}propanamide]
14 | 22.5 nM | CN1CCc2[nH]c(-c3ccncc3OC[C@H]3CCOC3)c(Nc3ccccc3)c2C1=O [Example 34, 5-methyl-3-(phenylamino)-2-{3-[(3S)-tetrahydrofuran-3-ylmethoxy]pyridin-4-yl}-1,5,6,7-tetrahydro-4H-pyrrolo[3,2-c]pyridin-4-one]
15 | 17.1 nM | CN1CCc2[nH]c(-c3ccnc(NC(=O)[C@H]4C[C@H]4F)c3)c(Nc3ccccc3)c2C1=O (relative stereo) [Example 25, rel-(1R,2R)-2-fluoro-N-{4-[5-methyl-4-oxo-3-(phenylamino)-4,5,6,7-tetrahydro-1H-pyrrolo[3,2-c]pyridin-2-yl]pyridin-2-yl}cyclopropanecarboxamide]
16 | 15.4 nM | Cc1cc(-c2[nH]c3c(c2Nc2ccccc2)C(=O)NCC3)ccn1 [Example 12, 2-(2-methylpyridin-4-yl)-3-(phenylamino)-1,5,6,7-tetrahydro-4H-pyrrolo[3,2-c]pyridin-4-one]
17 | 47.6 nM | CN1CCc2[nH]c(-c3ccncc3OCCO)c(Nc3ccccc3)c2C1=O [Example 26, 2-[3-(2-hydroxyethoxy)pyridin-4-yl]-5-methyl-3-(phenylamino)-1,5,6,7-tetrahydro-4H-pyrrolo[3,2-c]pyridin-4-one]
18 | 59.8 nM | O=C1NCCc2[nH]c(-c3ccncc3OCC3CC3)c(Nc3ccc(F)c(F)c3)c21 [Example 37, 2-[3-(cyclopropylmethoxy)pyridin-4-yl]-3-[(3,4-difluorophenyl)amino]-1,5,6,7-tetrahydro-4H-pyrrolo[3,2-c]pyridin-4-one]
19 | 9.93 nM | COCCOc1cnccc1-c1[nH]c2c(c1Nc1ccccc1)C(=O)N(C)CC2 [Example 31, 2-[3-(2-methoxyethoxy)pyridin-4-yl]-5-methyl-3-(phenylamino)-1,5,6,7-tetrahydro-4H-pyrrolo[3,2-c]pyridin-4-one]
20 | 24.1 nM | O=C1NCCc2[nH]c(-c3ccncc3OCC3CC3)c(Nc3cccc(F)c3)c21 [Example 39, 2-[3-(cyclopropylmethoxy)pyridin-4-yl]-3-[(3-fluorophenyl)amino]-1,5,6,7-tetrahydro-4H-pyrrolo[3,2-c]pyridin-4-one]
21 | 14.6 nM | CCn1c2c(c(Nc3ccccc3)c1-c1ccncc1)C(=O)NC(C)(C)C2 [Example 4, 1-ethyl-6,6-dimethyl-3-(phenylamino)-2-(pyridin-4-yl)-1,5,6,7-tetrahydro-4H-pyrrolo[3,2-c]pyridin-4-one]
22 | 56.1 nM | O=C1NCCc2[nH]c(-c3ccncc3OCC3CC3)c(Nc3ccc(F)cc3)c21 [Example 38, 2-[3-(cyclopropylmethoxy)pyridin-4-yl]-3-[(4-fluorophenyl)amino]-1,5,6,7-tetrahydro-4H-pyrrolo[3,2-c]pyridin-4-one]
23 | 11.5 nM | O=C1NCCc2[nH]c(-c3ccncc3F)c(Nc3ccccc3)c21 [Example 18, 2-(3-fluoropyridin-4-yl)-3-(phenylamino)-1,5,6,7-tetrahydro-4H-pyrrolo[3,2-c]pyridin-4-one]
24 | 70.8 nM | CN1CCc2[nH]c(-c3ccncc3OCC(F)F)c(Nc3ccccc3)c2C1=O [Example 29, 2-[3-(2,2-difluoroethoxy)pyridin-4-yl]-5-methyl-3-(phenylamino)-1,5,6,7-tetrahydro-4H-pyrrolo[3,2-c]pyridin-4-one]
25 | 26.9 nM | COc1cnccc1-c1[nH]c2c(c1Nc1ccccc1)C(=O)N(C)CC2 [Example 22, 2-(3-methoxypyridin-4-yl)-5-methyl-3-(phenylamino)-1,5,6,7-tetrahydro-4H-pyrrolo[3,2-c]pyridin-4-one]
26 | 7.89 nM | O=C1NCCc2[nH]c(-c3ccncc3)c(Nc3ccccc3)c21 [Example 2, 3-(phenylamino)-2-(pyridin-4-yl)-1,5,6,7-tetrahydro-4H-pyrrolo[3,2-c]pyridin-4-one]
